For this assay, the target named is T1, hSK1 channels (Homo sapiens, UniProt Q92952).
T1 construct: expressed in transfected cells; host or cells: HEK293
Kind of assay: whole-cell patch-clamp recording of ionic current through SK channels (subtype 1) in HEK293 cells expressing hSK1. Type of assay: cell-based. As to conditions: Stimulating Concentration required for increasing the baseline current by 100%. The method, then: The ionic current through small-conductance Ca^2+-activated K^+ channels (SK channels, subtype 1) is recorded using the whole-cell configuration of the patch-clamp technique in a classic patch-clamp set-up using HEK293 tissue culture cells expressing hSK1 channels as described in e.g. WO 2006/100212.
The SC100 value determined is defined as the Stimulating Concentration required for increasing the baseline current by 100%. The below SC100 values are an indication of the SK1 activating properties of the compounds of the invention.
For orientation: Patch clamp records ionic current or voltage across a cell membrane.

For the molecule `CON=CNc1nc2nccc(C(C)Oc3ccccc3C)n2n1` (centres unmarked) [Example 1, N-{7-[1-(2-Methylphenoxy)ethyl]-[1,2,4]triazolo[1,5-a]pyrimidin-2-yl}-N′-methoxy-formamidine], the SC100 turned out to be 0.02 µM.
To `CON=CNc1nc2nccc(C(C)Oc3ccccc3)n2n1` (centres unmarked) [Example A, N-{7-[1-(Phenoxy)ethyl]-[1,2,4]triazolo[1,5-a]pyrimidin-2-yl}-N′-methoxy-formamidine] belongs 0.20 µM.

The values above are taken from patent publication US8765770B2, “Substituted [1,2,4]triazolo[1,5-a]pyrimidines and their use as potassium channel modulators” (Ataxion, Inc., priority 2009, dated 2014).
